{"source": "PubChem BioAssay (NCI)", "assay_in_all_cases": "NCI anticancer screen, dose series, 48 h", "key": {"[1]": {"system": "786-0 renal"}, "[2]": {"system": "A498 renal"}, "[3]": {"system": "A549 NSCLC"}, "[4]": {"system": "ACHN renal"}, "[5]": {"system": "BT-549 breast"}, "[6]": {"system": "CAKI-1 renal"}, "[7]": {"system": "CCRF-CEM leukemia"}, "[8]": {"system": "COLO 205 colon"}, "[9]": {"system": "DU-145 prostate"}, "[10]": {"system": "EKVX NSCLC"}, "[11]": {"system": "HCC-2998 colon"}, "[12]": {"system": "HCT-116 colon"}, "[13]": {"system": "HCT-15 colon"}, "[14]": {"system": "HL-60(TB) leukemia"}, "[15]": {"system": "HOP-62 NSCLC"}, "[16]": {"system": "HOP-92 NSCLC"}, "[17]": {"system": "HS 578T breast"}, "[18]": {"system": "HT29 colon"}, "[19]": {"system": "IGROV1 ovarian"}, "[20]": {"system": "K-562 leukemia"}, "[21]": {"system": "KM12 colon"}, "[22]": {"system": "LOX IMVI melanoma"}, "[23]": {"system": "M14 melanoma"}, "[24]": {"system": "MALME-3M melanoma"}, "[25]": {"system": "MCF7 breast"}, "[26]": {"system": "MDA-MB-231 breast"}, "[27]": {"system": "MDA-MB-435"}, "[28]": {"system": "MDA-N"}, "[29]": {"system": "MOLT-4 leukemia"}, "[30]": {"system": "NCI-H226 lung"}, "[31]": {"system": "NCI-H23 lung"}, "[32]": {"system": "NCI-H460 lung"}, "[33]": {"system": "NCI-H522 lung"}, "[34]": {"system": "NCI/ADR-RES ovarian"}, "[35]": {"system": "OVCAR-3 ovarian"}, "[36]": {"system": "OVCAR-4 ovarian"}, "[37]": {"system": "OVCAR-5 ovarian"}, "[38]": {"system": "OVCAR-8 ovarian"}, "[39]": {"system": "PC-3 prostate"}, "[40]": {"system": "RPMI-8226 leukemia"}, "[41]": {"system": "RXF 393 renal"}, "[42]": {"system": "SF-268 CNS"}, "[43]": {"system": "SF-295 CNS"}, "[44]": {"system": "SF-539 CNS"}, "[45]": {"system": "SK-MEL-2 melanoma"}, "[46]": {"system": "SK-MEL-28 melanoma"}, "[47]": {"system": "SK-MEL-5 melanoma"}, "[48]": {"system": "SK-OV-3 ovarian"}, "[49]": {"system": "SN12C renal"}, "[50]": {"system": "SNB-19 CNS"}, "[51]": {"system": "SNB-75 CNS"}, "[52]": {"system": "SR leukemia"}, "[53]": {"system": "SW-620 colon"}, "[54]": {"system": "T-47D breast"}, "[55]": {"system": "TK-10 renal"}, "[56]": {"system": "U251 CNS"}, "[57]": {"system": "UACC-257 melanoma"}, "[58]": {"system": "UACC-62 melanoma"}, "[59]": {"system": "UO-31 renal"}}, "note": "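Results reflect a 48-hour exposure of cells in 96-well plates to compound at five concentrations. TGI: concentration producing complete growth inhibition.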"}
{"compound": "CCCCCCCCC[n+]1cccc(C2C(C(=O)OCC)=C(C)NC(C)=C2C(=O)OCC)c1", "values": [{"measurement": "TGI", "setting": "[1]", "result": 26.9, "unit": "µM"}, {"measurement": "TGI", "setting": "[2]", "result": 38.6, "unit": "µM"}, {"measurement": "TGI", "setting": "[3]", "result": 36.1, "unit": "µM"}, {"measurement": "TGI", "setting": "[4]", "result": 28.5, "unit": "µM"}, {"measurement": "TGI", "setting": "[5]", "result": 4.51, "unit": "µM"}, {"measurement": "TGI", "setting": "[6]", "result": 28.2, "unit": "µM"}, {"measurement": "TGI", "setting": "[7]", "result": 6.85, "unit": "µM"}, {"measurement": "TGI", "setting": "[8]", "result": 8.06, "unit": "µM"}, {"measurement": "TGI", "setting": "[9]", "result": 25.9, "unit": "µM"}, {"measurement": "TGI", "setting": "[10]", "result": 27.8, "unit": "µM"}, {"measurement": "TGI", "setting": "[11]", "result": 21.1, "unit": "µM"}, {"measurement": "TGI", "setting": "[12]", "result": 30.5, "unit": "µM"}, {"measurement": "TGI", "setting": "[13]", "result": 32.7, "unit": "µM"}, {"measurement": "TGI", "setting": "[14]", "result": 6.25, "unit": "µM"}, {"measurement": "TGI", "setting": "[15]", "result": 28.7, "unit": "µM"}, {"measurement": "TGI", "setting": "[16]", "result": 6.52, "unit": "µM"}, {"measurement": "TGI", "setting": "[17]", "result": 10.7, "unit": "µM"}, {"measurement": "TGI", "setting": "[18]", "result": 11.7, "unit": "µM"}, {"measurement": "TGI", "setting": "[19]", "result": 5.47, "unit": "µM"}, {"measurement": "TGI", "setting": "[20]", "result": 43.7, "unit": "µM"}, {"measurement": "TGI", "setting": "[21]", "result": 4.21, "unit": "µM"}, {"measurement": "TGI", "setting": "[22]", "result": 9.34, "unit": "µM"}, {"measurement": "TGI", "setting": "[23]", "result": 7.32, "unit": "µM"}, {"measurement": "TGI", "setting": "[24]", "result": 4.67, "unit": "µM"}, {"measurement": "TGI", "setting": "[25]", "result": 6.74, "unit": "µM"}, {"measurement": "TGI", "setting": "[26]", "result": 10.9, "unit": "µM"}, {"measurement": "TGI", "setting": "[27]", "result": 4.48, "unit": "µM"}, {"measurement": "TGI", "setting": "[28]", "result": 4.39, "unit": "µM"}, {"measurement": "TGI", "setting": "[29]", "result": 19.2, "unit": "µM"}, {"measurement": "TGI", "setting": "[30]", "result": 28.7, "unit": "µM"}, {"measurement": "TGI", "setting": "[31]", "result": 17.8, "unit": "µM"}, {"measurement": "TGI", "setting": "[32]", "result": 19.3, "unit": "µM"}, {"measurement": "TGI", "setting": "[33]", "result": 9.8, "unit": "µM"}, {"measurement": "TGI", "setting": "[34]", "result": "> 100", "unit": "µM"}, {"measurement": "TGI", "setting": "[35]", "result": 11.8, "unit": "µM"}, {"measurement": "TGI", "setting": "[36]", "result": 21.1, "unit": "µM"}, {"measurement": "TGI", "setting": "[37]", "result": 24.6, "unit": "µM"}, {"measurement": "TGI", "setting": "[38]", "result": 11.2, "unit": "µM"}, {"measurement": "TGI", "setting": "[39]", "result": 15.2, "unit": "µM"}, {"measurement": "TGI", "setting": "[40]", "result": 5.28, "unit": "µM"}, {"measurement": "TGI", "setting": "[41]", "result": 5.94, "unit": "µM"}, {"measurement": "TGI", "setting": "[42]", "result": 16.9, "unit": "µM"}, {"measurement": "TGI", "setting": "[43]", "result": 33.9, "unit": "µM"}, {"measurement": "TGI", "setting": "[44]", "result": 15.6, "unit": "µM"}, {"measurement": "TGI", "setting": "[45]", "result": 3.29, "unit": "µM"}, {"measurement": "TGI", "setting": "[46]", "result": 7.28, "unit": "µM"}, {"measurement": "TGI", "setting": "[47]", "result": 3.8, "unit": "µM"}, {"measurement": "TGI", "setting": "[48]", "result": 26.5, "unit": "µM"}, {"measurement": "TGI", "setting": "[49]", "result": 17.5, "unit": "µM"}, {"measurement": "TGI", "setting": "[50]", "result": 11.2, "unit": "µM"}, {"measurement": "TGI", "setting": "[51]", "result": 11.6, "unit": "µM"}, {"measurement": "TGI", "setting": "[52]", "result": "> 25.3", "unit": "µM"}, {"measurement": "TGI", "setting": "[53]", "result": 30.5, "unit": "µM"}, {"measurement": "TGI", "setting": "[54]", "result": 20.3, "unit": "µM"}, {"measurement": "TGI", "setting": "[55]", "result": 25.8, "unit": "µM"}, {"measurement": "TGI", "setting": "[56]", "result": 12.6, "unit": "µM"}, {"measurement": "TGI", "setting": "[57]", "result": 7.73, "unit": "µM"}, {"measurement": "TGI", "setting": "[58]", "result": 3.54, "unit": "µM"}, {"measurement": "TGI", "setting": "[59]", "result": 31.6, "unit": "µM"}]}
